Measured values reported in patent EP0589484A1, “1,2-Ethanediol derivative and salt thereof, process for producing the same, and cerebral function-improving agent comprising the same” (TOYAMA CHEMICAL CO., LTD., priority 1989, dated 1990).
Counter-ions that a name gives are not always drawn. Like-named read-outs stand apart in the source and are kept apart here.

How the values were obtained:
[1] = target: T1, acetylcholinesterase (Mus musculus, UniProt P21836); assay: Inhibitory activity for acetylcholinesterase (method of Ellman et al.); format: biochemical
T1 construct: a mouse cerebral homogenate (as an acetylcholinesterase source); from tissue; host or cells: mouse cerebrum (homogenate)
Procedure: A test was conducted in accordance with the method of Ellman et al. [Biochem. Pharmacol., vol. 7, pp. 88-95, 1961].
That is, acetylthiocholine (as a substrate) was added to a phosphate buffer solution containing 5,5'-dithiobis-(2-nitrobenzoic acid) (DTNB), a test compound and a mouse cerebral homogenate (as an acetylcholinesterase source). The resulting mixture was incubated, and the amount of the resulting 5-thio-2-nitrobenzoic acid was photometrically measured at 412 nm.
The inhibitory activity for acetylcholinesterase of the test compound was expressed by the inhibition (%) when the final concentration of the test compound was 10 µg/ml.

[2] = test system: ddY male mice; assay: Acute toxicity; format: in vivo, mouse; conditions: 50 mg/kg intravenously, group of 3 ddY male mice
Text: A test compound dissolved in physiological saline was intravenously administered to a group of 3 ddY male mice (5-6 weeks old) to examine the acute toxicity of the test compound.

[3] = test system: ddY female mouse; assay: Effect of test compound on hypoxia (antihypoxic activity); format: in vivo; conditions: po, read-out: Antihypoxic activity (%)
Procedure: A test compound dissolved in physiological saline (100 mg/kg) was orally administered to a ddY female mouse (5-6 weeks old, each group consisting of 10 mice). After 1 (or 30 minutes*) hour from the administration, each mouse was placed in a 300-ml glass chamber, and a gas mixture consisting of 4% of oxygen and 96% of nitrogen was passed through the chamber at a rate of 5 liters/min. A time from the start of gas passing to the death of each mouse was measured.
To a control mice group was orally administered only physiological saline.
The antihypoxic activity of the test compound was calculated from the following formula: [formula]

[4] = final concentration of the test compound 10 µg/ml, mouse cerebral homogenate, read-out: Inhibition (%)
[5] = 100 mg/kg orally, placed in chamber (4% oxygen, 96% nitrogen) after 1 hour from the administration, survival time relative to control
[6] = 0.5 h, 100 mg/kg orally, placed in chamber (4% oxygen, 96% nitrogen) after 30 minutes from the administration (values marked *), survival time relative to control

T1 sequence (P21836 32-614): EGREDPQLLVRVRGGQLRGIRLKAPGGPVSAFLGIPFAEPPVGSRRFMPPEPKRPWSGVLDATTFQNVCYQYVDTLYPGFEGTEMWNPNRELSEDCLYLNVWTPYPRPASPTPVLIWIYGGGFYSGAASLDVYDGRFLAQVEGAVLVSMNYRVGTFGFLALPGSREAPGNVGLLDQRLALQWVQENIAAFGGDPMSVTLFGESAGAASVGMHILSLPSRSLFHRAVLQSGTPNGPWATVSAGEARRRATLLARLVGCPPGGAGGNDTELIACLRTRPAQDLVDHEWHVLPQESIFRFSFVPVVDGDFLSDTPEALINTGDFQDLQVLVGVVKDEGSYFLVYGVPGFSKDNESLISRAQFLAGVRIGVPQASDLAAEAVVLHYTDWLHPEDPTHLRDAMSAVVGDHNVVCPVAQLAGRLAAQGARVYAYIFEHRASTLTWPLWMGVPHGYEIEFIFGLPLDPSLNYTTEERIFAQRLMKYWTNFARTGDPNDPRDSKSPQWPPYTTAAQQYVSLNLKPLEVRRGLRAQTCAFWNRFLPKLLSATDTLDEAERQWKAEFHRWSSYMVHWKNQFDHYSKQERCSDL

Structure (SMILES) | inhibition at 10 µg/mL [1, 4] [%] | Acute toxicity [2] | response vs control in vivo at 100 mg/kg [3, 5] [%] | response vs control in vivo at 100 mg/kg [3, 6] [%] | further results
CN(C)CCOCC(O)c1ccc(Oc2ccccc2)cc1 (centres unmarked) [Compound No. 54, 2-[2-(N,N-dimethylamino)ethoxy]-1-[4-(4-phenyloxy)phenyl]ethanol hydrochloride] | 83 | no death case | 137 | – | –
OC(COCCN1CCCC1)c1ccccc1 (centres unmarked) [compound 6] | 13 | no death case | – | – | –
CC(OCCN(C)C)C(O)c1ccccc1 (centres unmarked) [compound 30] | 22 | no death case | – | – | –
CN(C)CCOCC(O)c1ccc(Cl)c(Cl)c1 (centres unmarked) [compound 34] | 26 | no death case | 221 | – | –
OC(COCCN1CCCCC1)c1ccc(Cl)c(Cl)c1 (centres unmarked) [compound 37] | 45 | – | 148 | – | –
CN(C)CCOCC(O)c1ccc(F)cc1 (centres unmarked) [compound 38] | 36 | no death case | – | – | –
CN(C)CCOCC(O)c1cccc([N+](=O)[O-])c1 (centres unmarked) [compound 40] | 26 | no death case | – | – | –
CN(C)CCOCC(O)c1cccc(OCc2ccccc2)c1 (centres unmarked) [compound 47] | 38 | – | – | 165 | –
COc1ccc(-c2ccc(C(O)COCCN(C)C)cc2)cc1 (centres unmarked) [compound 55] | 22 | – | 207 | – | –
CN(C)CCOCC(O)c1cccc(Cc2ccccc2)c1 (centres unmarked) [compound 58] | 45 | – | 133 | – | –
Cc1cccc(C(O)COCCC2CCN(Cc3ccccc3)CC2)c1 (centres unmarked) [compound 61] | 89 | – | – | 184 | –
OC(COCCC1CCN(Cc2ccccc2)CC1)c1ccc(F)cc1 (centres unmarked) [compound 62] | 78 | – | 127 | – | –
Cc1ccccc1-c1ccc(C(O)COCCN(C)C)cc1 (centres unmarked) [compound 65] | 62 | no death case | – | – | –
CN(C)CCOCC(O)c1ccc(Oc2ccc(F)cc2)cc1 (centres unmarked) [compound 67] | 90 | no death case | – | 247 | –
CN(C)CCOCC(O)c1ccc(Oc2ccccc2Cl)cc1 (centres unmarked) [compound 70] | 91 | no death case | – | – | –
COc1ccc(Oc2ccc(C(O)COCCN(C)C)cc2)cc1 (centres unmarked) [compound 71] | 87 | no death case | 147 | – | –
Cc1ccc(Oc2ccc(C(O)COCCN(C)C)cc2)cc1 (centres unmarked) [compound 83] | 93 | – | – | 177 | –
CN(C)CCOCC(O)c1ccc(OCc2ccncc2)cc1 (centres unmarked) [compound 86] | 50 | – | – | 130 | –
CN(C)CCOCC(O)c1ccc(CCc2ccccc2)cc1 (centres unmarked) [compound 89] | 44 | – | – | 156 | –
CN(C)CCOCC(O)c1ccc(OCc2cccc(Cl)c2)cc1 (centres unmarked) [compound 97] | 38 | – | – | 138 | –

Structure (SMILES) | inhibition at 10 µg/mL [1, 4] [%] | Acute toxicity [2] | response vs control in vivo at 100 mg/kg [3, 5] [%] | response vs control in vivo at 100 mg/kg [3, 6] [%] | further results
CN(C)CCOCC(O)c1cccc(NS(=O)(=O)c2ccccc2)c1 (centres unmarked) [compound 182] | 38 | no death case | – | – | –
CC(=O)OC(COCCN(C)C)c1cccc(OC(=O)Nc2cccc(Cl)c2)c1.Cl (centres unmarked) [compound 190, 1-acetoxy-1-[3-(3-chlorophenylcarbamoyloxy)phenyl]-2-[2-(N,N-dimethylamino)ethoxy]ethane hydrochloride] | – | no death case | – | – | inhibition at 10 µg/mL [1]: 76%
CN(C)CCOCC(O)c1ccc(SCc2ccccc2)cc1 (centres unmarked) [compound 222, 1-(4-benzylthiophenyl)-2-[2-(N,N-dimethylamino)ethoxy]ethanol hydrochloride] | 83 | – | – | – | response vs control in vivo at 100 mg/kg ([3]; 0.5 h): 152%
CN(C)CCOCC(O)c1ccc(S(=O)(=O)Cc2ccccc2)cc1 (centres unmarked) [compound 223] | 74 | – | – | 149 | –
CN(C)CCOCC(O)c1ccc(-c2cccs2)cc1 (centres unmarked) [compound 224] | 36 | – | 155 | – | –
CN(C)CCOCC(O)c1cccc2ccccc12 (centres unmarked) [compound 228, 2-[2-(N,N-dimethylamino)ethoxy]-1-(1-naphthyl)ethanol hydrochloride] | 30 | – | – | – | response vs control in vivo at 100 mg/kg ([3]; 1 h): 144%
CN(C)CCOCC(O)c1ccc(Cl)c2ccccc12 (centres unmarked) [compound 230] | 25 | – | 177 | – | –
OC(COCCN1CCCCC1)c1cccc2ccccc12 (centres unmarked) [compound 237] | 44 | – | 149 | – | –
COc1ccc(C(O)COCCN(C)C)c2ccccc12 (centres unmarked) [compound 239] | 22 | – | 150 | – | –
CN(C)CCOCC(O)c1cccc2ccc(Cl)cc12 (centres unmarked) [compound 246] | 30 | – | 128 | – | –
CN(C)CCOCC(O)c1cccc2cccc(Cl)c12 (centres unmarked) [compound 247] | 26 | – | 124 | – | –
O=C(c1ccc(F)cc1)C1CCN(CCOCC(O)c2cccc3ccccc23)CC1 (centres unmarked) [compound 260, 2-{2-[4-(p-fluorobenzoyl)piperidin-1-yl]ethoxy}-1-(1-naphthyl)ethanol hydrochloride] | 43 | – | – | – | response vs control in vivo at 100 mg/kg ([3]; 1 h): 124%
OC(COCCN1CCN(Cc2ccccc2)CC1)c1cccc2ccccc12 (centres unmarked) [compound 302] | 38 | – | – | 182 | –
CN(C)CCOCC(O)c1ccc2ncccc2c1 (centres unmarked) [compound 319] | 30 | no death case | – | – | –
CN(C)CCCOCC(O)c1ccc2sccc2c1 (centres unmarked) [compound 336] | 21 | – | – | 224 | –
OC(COCCC1CCN(Cc2ccccc2)CC1)c1ccc2sccc2c1 (centres unmarked) [compound 342] | 67 | – | – | 157 | –
O=C(c1ccc(F)cc1)C1CCN(CCOCC(O)c2ccc3sccc3c2)CC1 (centres unmarked) [compound 350] | 42 | – | – | 147 | –
CNc1nc(Cl)c(C(O)COCCN(C)C)cc1F (centres unmarked) [compound 377] | 23 | no death case | – | 221 | –
CN(C)CCOCC(O)c1ccc([N+](=O)[O-])s1 (centres unmarked) [compound 405, 1-(5-nitro-2-thienyl)-2-[2-(N,N-dimethylamino)ethoxy]ethanol] | 59 | – | – | 137 | –
